In assay [1] the target is T1, human D2R/β-arrestin (Homo sapiens (Human), UniProt P14416). The experiment in a line: β-arrestin agonist assay (PathHunter). The assay is classed as cell-based. The following applies: CHO-K1 cells expressing human D2R/β-arrestin; agonist mode. The procedure:
The detection reagent (9.6 μL, Buffer:Emerald II:Galactor-Star in a 19:5:1 ratio, i.e., 14.06 mL:3.7 mL:0.74 mL=18.5 mL) was then added to the agonist plates.

Assay [2] addresses T1, human D2R/β-arrestin. As to the kind of experiment: Gi/cAMP agonist assay (Lance Ultra cAMP, forskolin). In kind it is cell-based. As to conditions: CHO-K1 cells expressing human D2R/β-arrestin; agonist mode, 2.5 μM forskolin. The procedure: Eu-cAMP tracer solution (10 μl, PerkinElmer, 360 μl of Tracer in 17.64 ml kit buffer) and ULight-anti-cAMP solution (10 μl, 120 μL antibody in 17.88 ml kit buffer) was then added to each well.

Assay [3] deals with T1, human D2R/β-arrestin. The experiment in a line: cell-based. As to conditions: β-arrestin Antagonist, CHO-K1 cells expressing human D2R/β-arrestin; antagonist mode, quinpirole 130 nM.
Assay [4] addresses T1, human D2R/β-arrestin. As to the kind of experiment: cell-based. The following applies: cAMP Antagonist, CHO-K1 cells expressing human D2R/β-arrestin; antagonist mode, 2.5 μM forskolin and 2.7 nM quinpirole.

A value given as a limit tells only on which side of the number the result lay.

T1 sequence (P14416 whole entry): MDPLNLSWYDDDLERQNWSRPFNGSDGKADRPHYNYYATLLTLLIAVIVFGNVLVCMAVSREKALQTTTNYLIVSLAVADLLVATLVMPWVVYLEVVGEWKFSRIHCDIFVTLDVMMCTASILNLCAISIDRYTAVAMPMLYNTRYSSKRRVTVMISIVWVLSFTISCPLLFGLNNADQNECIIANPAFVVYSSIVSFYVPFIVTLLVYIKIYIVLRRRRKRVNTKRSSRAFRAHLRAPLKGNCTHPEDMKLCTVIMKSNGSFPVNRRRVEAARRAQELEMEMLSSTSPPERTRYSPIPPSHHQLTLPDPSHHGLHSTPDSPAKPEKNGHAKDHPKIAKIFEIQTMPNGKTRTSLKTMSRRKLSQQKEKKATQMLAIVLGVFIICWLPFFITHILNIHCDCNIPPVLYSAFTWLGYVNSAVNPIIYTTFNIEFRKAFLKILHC

Turning to `CC1(Oc2ccc(Cl)cc2)CCN(CCOc2ccc(F)cc2F)C1` (stereo not shown) [Compound 22, 3-(4-chlorophenoxy)-1-(2-(2,4-difluorophenoxy)ethyl)-3-methyl pyrrolidine], the EC50 on human D2R/β-arrestin [1] is greater than 30 µM; on human D2R/β-arrestin [2] it was less than 0.1 µM. Moreover, the IC50 on human D2R/β-arrestin [3] fell in the range of 1 to 10 µM; against human D2R/β-arrestin [4], 0.1 to 1 µM.

With `CC1(Oc2ccc(Cl)cc2)CCN(CCOc2cc(F)ccc2F)C1` (stereo not shown) [Compound 23, 3-(4-chlorophenoxy)-1-(2-(2,5-difluorophenoxy)ethyl)-3-methyl pyrrolidine], the EC50 at human D2R/β-arrestin [1] is greater than 30 µM; at human D2R/β-arrestin [2], less than 0.1 µM. Also, the IC50 on human D2R/β-arrestin [3] was 0.1 to 1 µM; on human D2R/β-arrestin [4], greater than 30 µM.

As to `CC1(Oc2ccc(Cl)cc2)CCN(CCOc2ccc3cccnc3c2)C1` (stereo not shown) [Compound 24], the EC50 at human D2R/β-arrestin [1] and at human D2R/β-arrestin [2] was less than 0.1 µM throughout. The IC50 against human D2R/β-arrestin [3] and against human D2R/β-arrestin [4] was greater than 30 µM throughout.

On to `CC1(Oc2ccc(Cl)cc2)CCN(CCOc2ccc3ccc(=O)[nH]c3c2)C1` (stereo not shown) [Compound 25, 7-(2-(3-(4-chlorophenoxy)-3-methylpyrrolidin-1-yl)ethoxy)quinolin-2(1H)-one], for which the EC50 at human D2R/β-arrestin [1] and at human D2R/β-arrestin [2] was greater than 30 µM throughout. Further, the IC50 at human D2R/β-arrestin [3] and on human D2R/β-arrestin [4] was 1 to 10 µM in each case.

For the molecule `CC1(Oc2ccc(Cl)cc2)CCN(CCCc2ccccc2)C1` (stereo not shown) [Compound 26, 3-(4-chlorophenoxy)-3-methyl-1-(3-phenylpropyl)pyrrolidine], the EC50 on human D2R/β-arrestin [1] and on human D2R/β-arrestin [2] was greater than 30 µM in each case. In addition, the IC50 against human D2R/β-arrestin [3] was in the range of 1 to 10 µM; against human D2R/β-arrestin [4], 0.1 to 1 µM.

As to `CC1(Oc2ccc(Cl)cc2)CCN(CCCCOc2ccccc2Cl)C1` (stereo not shown) [Compound 28, 3-(4-chlorophenoxy)-1-(4-(2-chlorophenoxy)butyl)-3-methylpyrrolidine], the EC50 at human D2R/β-arrestin [1] and on human D2R/β-arrestin [2] was greater than 30 µM each time. Further, the IC50 against human D2R/β-arrestin [3] was 0.1 to 1 µM; at human D2R/β-arrestin [4], less than 0.1 µM.

As for `CC1(Oc2ccc(Cl)cc2)CCN(CCCCOc2ccc3ncsc3c2)C1` (stereo not shown) [Compound 29, 6-(4-(3-(4-chlorophenoxy)-3-methylpyrrolidin-1-yl)butoxy)benzo[d]thiazole], the EC50 at human D2R/β-arrestin [1] and on human D2R/β-arrestin [2] was greater than 30 µM each time. Besides, the IC50 against human D2R/β-arrestin [3] and at human D2R/β-arrestin [4] was 1 to 10 µM throughout.

Regarding `CC1(Oc2ccc(Cl)cc2)CCN(CCOc2ccc(C(F)(F)F)nc2)C1` (stereo not shown) [Compound 30, 5-(2-(3-(4-Chlorophenoxy)-3-methylpyrrolidin-1-yl)ethoxy)-2-(trifluoromethyl)pyridine], the values for the EC50 on human D2R/β-arrestin [1] and on human D2R/β-arrestin [2] were 1 to 10 µM and 0.1 to 1 µM, respectively. In addition, the IC50 at human D2R/β-arrestin [3] and at human D2R/β-arrestin [4] was greater than 30 µM in each case.

Take `CC1(Oc2ccc(Cl)cc2)CCN(CCOc2ccc3ccccc3c2)C1` (stereo not shown) [Compound 31, 3-(4-Chlorophenoxy)-3-methyl-1-(2-(naphthalen-2-yloxy)ethyl) pyrrolidine]: the EC50 at human D2R/β-arrestin [1] and at human D2R/β-arrestin [2] was greater than 30 µM throughout. Further, the IC50 against human D2R/β-arrestin [3] was 1 to 10 µM; against human D2R/β-arrestin [4], 0.1 to 1 µM.

As to `CC1(Oc2ccc(Cl)cc2)CCN(CCOc2ccc3ncccc3c2)C1` (stereo not shown) [Compound 32], the EC50 at human D2R/β-arrestin [1] is greater than 30 µM; at human D2R/β-arrestin [2], 0.1 to 1 µM. Besides, the IC50 on human D2R/β-arrestin [3] is 1 to 10 µM; against human D2R/β-arrestin [4], greater than 30 µM.

For `CC1(Oc2ccc(Cl)cc2)CCN(CCOc2ccc3cnccc3c2)C1` (stereo not shown) [Compound 33, 6-(2-(3-(4-chlorophenoxy)-3-methylpyrrolidin-1-yl)ethoxy)isoquinoline], the EC50 at human D2R/β-arrestin [1] and on human D2R/β-arrestin [2] was greater than 30 µM throughout. For the same molecule, the IC50 against human D2R/β-arrestin [3] is 1 to 10 µM; against human D2R/β-arrestin [4], 0.1 to 1 µM.

`CC1(Oc2ccc(Cl)cc2)CCN(CCOc2ccc3ccncc3c2)C1` (stereo not shown) [Compound 34, 7-(2-(3-(4-chlorophenoxy)-3-methylpyrrolidin-1-yl)ethoxy)isoquinoline]: the EC50 lay within 1 to 10 µM at human D2R/β-arrestin [1] and 0.1 to 1 µM at human D2R/β-arrestin [2]. Further, the IC50 on human D2R/β-arrestin [3] and against human D2R/β-arrestin [4] was greater than 30 µM each time.

Turning to `CC1(Oc2ccc(Cl)cc2)CCN(CCOc2ccc(Cl)c(Cl)c2)C1` (stereo not shown) [Compound 35, 3-(4-chlorophenoxy)-1-(2-(3,4-dichlorophenoxy)ethyl)-3-methyl pyrrolidine], the half-maximal effective concentration (EC50) at human D2R/β-arrestin [1] is greater than 30 µM; on human D2R/β-arrestin [2], less than 0.1 µM. Further, the values for the IC50 against human D2R/β-arrestin [3] and against human D2R/β-arrestin [4] were 1 to 10 µM and greater than 30 µM, respectively.

As for `CC1(Oc2ccc(Cl)cc2)CCN(CCOc2cccc3ccccc23)C1` (stereo not shown) [Compound 36, 3-(4-chlorophenoxy)-3-methyl-1-(2-(naphthalen-1-yloxy)ethyl) pyrrolidine], the figures for the EC50 at human D2R/β-arrestin [1] and at human D2R/β-arrestin [2] were greater than 30 µM and 0.1 to 1 µM, respectively. Besides, the IC50 at human D2R/β-arrestin [3] is 1 to 10 µM; on human D2R/β-arrestin [4], 0.1 to 1 µM.

Regarding `CC1(Oc2ccc(Cl)cc2)CCN(CCOc2cccc(-c3ccccc3)c2)C1` (stereo not shown) [Compound 37, 1-(2-([1,1′-biphenyl]-3-yloxy)ethyl)-3-(4-chlorophenoxy)-3-methylpyrrolidine], the EC50 at human D2R/β-arrestin [1] and on human D2R/β-arrestin [2] was greater than 30 µM each time. The IC50 against human D2R/β-arrestin [3] was 1 to 10 µM; at human D2R/β-arrestin [4] it was 0.1 to 1 µM.

Consider `CC1(Oc2ccc(Cl)cc2)CCN(CCOc2ccccc2)CC1` [Compound 38, 4-(4-chlorophenoxy)-4-methyl-1-(2-phenoxyethyl)piperidine], for which the EC50 at human D2R/β-arrestin [1] is 0.1 to 1 µM; at human D2R/β-arrestin [2] it was less than 0.1 µM. Further, the IC50 against human D2R/β-arrestin [3] and against human D2R/β-arrestin [4] was greater than 30 µM each time.

Turning to `CC1(Oc2ccccc2)CCN(CCOc2ccccc2)C1` (stereo not shown) [Compound 39, 3-methyl-3-phenoxy-1-(2-phenoxyethyl)pyrrolidine], the EC50 on human D2R/β-arrestin [1] was greater than 30 µM; at human D2R/β-arrestin [2] it was less than 0.1 µM. For the same molecule, the values for the half-maximal inhibitory concentration (IC50) at human D2R/β-arrestin [3] and on human D2R/β-arrestin [4] were 0.1 to 1 µM and greater than 30 µM, respectively.

On to `FC(F)(F)c1ccccc1OCCN1CCC2(CC1)CCN2c1ccccc1` [Compound 113, 1-phenyl-7-(2-(2-(trifluoromethyl)phenoxy)ethyl)-1,7-diazaspiro[3.5]nonane], for which the EC50 on human D2R/β-arrestin [1] and at human D2R/β-arrestin [2] was greater than 30 µM in each case. The IC50 against human D2R/β-arrestin [3] and against human D2R/β-arrestin [4] was 0.1 to 1 µM throughout.

With `OC1(Cc2ccccc2)CCN(CCOc2ccccc2C(F)(F)F)CC1` [Compound 114, 4-benzyl-1-(2-(2-(trifluoromethyl)phenoxy)ethyl)piperidin-4-ol], the EC50 on human D2R/β-arrestin [1] and at human D2R/β-arrestin [2] was greater than 30 µM throughout. Moreover, the IC50 on human D2R/β-arrestin [3] and against human D2R/β-arrestin [4] was less than 0.1 µM each time.

On to `FC1(Cc2ccccc2)CCN(CCOc2ccccc2C(F)(F)F)CC1` [Compound 115, 4-benzyl-4-fluoro-1-(2-(2-(trifluoromethyl)phenoxy)ethyl)piperidine], for which the EC50 at human D2R/β-arrestin [1] and at human D2R/β-arrestin [2] was greater than 30 µM throughout. The concentration for half-maximal inhibition (IC50) against human D2R/β-arrestin [3] and on human D2R/β-arrestin [4] was 1 to 10 µM each time.

`CC1(Oc2ccccc2)CCN(CCC(=O)c2ccccc2C(F)(F)F)CC1` [Compound 116, 3-(4-Methyl-4-phenoxypiperidin-1-yl)-1-(2-(trifluoromethyl)phenyl) propan-1-one]: the EC50 at human D2R/β-arrestin [1] and at human D2R/β-arrestin [2] was greater than 30 µM in each case. Besides, the values for the IC50 on human D2R/β-arrestin [3] and on human D2R/β-arrestin [4] were 10 to 30 µM and 1 to 10 µM, respectively.

With `CC1(Oc2ccc(Cl)cc2)CCN(CCC(C)(O)c2ccccc2C(F)(F)F)CC1` (stereo not shown) [Compound 117, 4-(4-(4-chlorophenoxy)-4-methylpiperidin-1-yl)-2-(2-(trifluoromethyl)phenyl)butan-2-ol], the EC50 on human D2R/β-arrestin [1] and at human D2R/β-arrestin [2] was greater than 30 µM in each case. Also, the half-inhibitory concentration (IC50) was 10 to 30 µM against human D2R/β-arrestin [3] and 1 to 10 µM against human D2R/β-arrestin [4].

Regarding `CC1(Oc2ccccc2)CCN(CCCc2ccccc2C(F)(F)F)CC1` [Compound 118, 4-Methyl-4-phenoxy-1-(3-(2-(trifluoromethyl)phenyl)propyl)piperidine], the EC50 at human D2R/β-arrestin [1] was greater than 30 µM; on human D2R/β-arrestin [2], less than 0.1 µM. The IC50 against human D2R/β-arrestin [3] and against human D2R/β-arrestin [4] was 0.1 to 1 µM each time.

Consider `CC1(C)OC(c2ccccc2)C2(CCN(CCOc3ccccc3C(F)(F)F)CC2)O1` (stereo not shown) [Compound 119], for which the EC50 at human D2R/β-arrestin [1] and at human D2R/β-arrestin [2] was greater than 30 µM in each case. The IC50 at human D2R/β-arrestin [3] and on human D2R/β-arrestin [4] was 1 to 10 µM throughout.

Take `CC1(Oc2ccc(Cl)cc2)CCN(CCCCOc2ccccc2)CC1` [Compound 120, 4-(4-chlorophenoxy)-4-methyl-1-(4-phenoxybutyl)piperidine]: the EC50 is greater than 30 µM at human D2R/β-arrestin [1] and 1 to 10 µM at human D2R/β-arrestin [2]. The IC50 on human D2R/β-arrestin [3] is 10 to 30 µM; on human D2R/β-arrestin [4], greater than 30 µM.

As to `CC1(Oc2ccccc2)CCN(CCCCOc2ccccc2)CC1` [Compound 121, 4-Methyl-4-phenoxy-1-(4-phenoxybutyl)piperidine], the results for the EC50 on human D2R/β-arrestin [1] and on human D2R/β-arrestin [2] were 0.1 to 1 µM and less than 0.1 µM, respectively. In addition, the half-maximal inhibitory concentration (IC50) against human D2R/β-arrestin [3] was 1 to 10 µM; against human D2R/β-arrestin [4], greater than 30 µM.

Take `CC1(O)CCN(CCOc2ccccc2C(F)(F)F)CC1` [Compound 124, 4-Methyl-1-(2-(2-(trifluoromethyl)phenoxy)ethyl)piperidin-4-ol]: the EC50 on human D2R/β-arrestin [1] and on human D2R/β-arrestin [2] was greater than 30 µM in each case. Further, the IC50 was 0.1 to 1 µM against human D2R/β-arrestin [3] and less than 0.1 µM at human D2R/β-arrestin [4].

Turning to `CC1(OCc2ccccc2)CCN(CCOc2ccccc2C(F)(F)F)CC1` [Compound 126, 4-(Benzyloxy)-4-methyl-1-(2-(2-(trifluoromethyl)phenoxy)ethyl) piperidine], the EC50 at human D2R/β-arrestin [1] and on human D2R/β-arrestin [2] was greater than 30 µM throughout. Moreover, the IC50 at human D2R/β-arrestin [3] and against human D2R/β-arrestin [4] was less than 0.1 µM each time.

A word on the EC50: it is the midpoint of the concentration-response curve. The low end stands for greater potency, the high end for weaker potency. As usually defined, the IC50 is the midpoint of a concentration-inhibition curve.

The values above are taken from patent US11498896B2 (The Broad Institute, Inc., priority 2014, dated 2022).
